This is an account of results in publication PMC12040169 (PLOS Biology, 2025).

As a reminder, the viability is a read-out of living cells in per cent, often relative to untreated cells.

The data set in a line: in vitro. The following applies: human, hela cells, % viability.
In the case of `O=C(O)c1ccc(S(=O)(=O)c2ccc3c(c2)C(=O)N(c2ccc(Sc4ccc([N+](=O)[O-])cc4)cc2)C3=O)cc1` [CBK262869], the viability at 28.5 h, 10 µM was determined as 104%.

For the compound `CC(CCc1ccccc1)NC1CCCc2c1[nH]c1ccc([N+](=O)[O-])cc21` (centres unmarked) [CBK262875], the viability at 28.5 h, 10 µM was 73.2%.

As for `COc1ccc(CCC(C)NC2CCCc3c2[nH]c2ccc([N+](=O)[O-])cc32)cc1` (centres unmarked) [CBK262876], the viability at 28.5 h, 10 µM stood at 71.6%.

On to `CC(NC1CCN(Cc2ccccc2)CC1)C12CC3CC(CC(c4ccc(Cl)cc4)(C3)C1)C2` (centres unmarked) [CBK262877], for which the viability at 28.5 h, 10 µM is 90.1%.

With `CC1C2CCCN2CCN1Cc1cccc(Oc2ccccc2)c1` (centres unmarked) [CBK262880], the viability at 28.5 h, 10 µM is 94.9%.

For `Cc1cc(C)nc(SCC(=O)N/N=C2/C(=O)Nc3ccccc32)n1` [CBK262883], the viability at 28.5 h, 10 µM turned out to be 108%.

For `COc1ccc(-c2cc(C(=O)N/N=C/c3c(C)[nH]c4ccccc34)[nH]n2)cc1` [CBK262884], the viability at 28.5 h, 10 µM came out at 55.7%.

With `O=C(N/N=C/c1ccccn1)c1cc(-c2ccc3ccccc3c2)[nH]n1` [CBK262886], the viability at 28.5 h, 10 µM was 93.9%.

For `CCOc1ccc(-c2n[nH]c(C(=O)N/N=C3/C(=O)Nc4ccccc43)c2C)cc1` [CBK262889], the viability at 28.5 h, 10 µM amounted to 99.6%.

With `CC(NCc1ccncc1)=C1C(=O)c2ccccc2C1=O` [CBK262890], the viability at 28.5 h, 10 µM worked out at 105%.

Turning to `N#C/C(=C/c1c[nH]c2ccccc12)c1n[nH]c(N)c1C#N` [CBK262893], the viability at 28.5 h, 10 µM came out at 70.4%.

On to `N=c1n(CC(=O)O)c2ccccc2n1Cc1ccc(Cl)cc1` [CBK262897B], for which the viability at 28.5 h, 10 µM was determined as 89.5%.

For the compound `c1ccc(-c2oc3ncn4nc(COc5cccc6ccccc56)nc4c3c2-c2ccccc2)cc1` [CBK262898], the viability at 28.5 h, 10 µM came out at 99.9%.

In the case of `Cc1cc(=O)n2ccc(CN3CCOCC3)c(O)c2n1` [CBK262899C], the viability at 28.5 h, 10 µM is 114%.

Take `Cc1n[nH]c(C)c1CCC(=O)N/N=C/c1ccc(Cl)cc1Cl` [CBK262901]: the viability at 28.5 h, 10 µM turned out to be 86.6%.

Turning to `CN(C)c1ccc(/C=N/NC(=O)CCn2c3ccccc3c3cc(I)ccc32)cc1` [CBK262902], the viability at 28.5 h, 10 µM worked out at 84.5%.

On to `NC(CC(=O)O)c1cccc([N+](=O)[O-])c1` (centres unmarked) [CBK262903C], for which the viability at 28.5 h, 10 µM is 96.9%.

In the case of `O=C(Cn1c(NCCCO)nc2ccccc21)c1ccc(Cl)c(Cl)c1` [CBK262905B], the viability at 28.5 h, 10 µM was 94.1%.

For `CCn1c(=N)n(CC(=O)O)c2ccccc21` [CBK262906B], the viability at 28.5 h, 10 µM turned out to be 94%.

On to `O=C1/C(=C/NCc2cccnc2)C(c2ccccc2)=NN1c1ccc([N+](=O)[O-])cc1` [CBK262911], for which the viability at 28.5 h, 10 µM is 97.6%.

As to `CC1(C)OC2C(C(=O)O)OC(n3cnc4c(N)ncnc43)C2O1` (centres unmarked) [CBK262912], the viability at 28.5 h, 10 µM is 96.2%.

In the case of `CCN(CC)CCn1c(=N)n(CC(O)c2ccc(C)cc2)c2ccccc21` (centres unmarked) [CBK262914C], the viability at 28.5 h, 10 µM was 104%.

With `CCCCOc1ccc(C(N)CC(=O)O)cc1` (centres unmarked) [CBK262915], the viability at 28.5 h, 10 µM was 86.8%.

On to `O=C(O)COc1ccccc1/C=N\N1CCN(c2ccccn2)CC1` [CBK262916], for which the viability at 28.5 h, 10 µM turned out to be 95.9%.

In the case of `CC(=O)C1=C(O)C(=O)N(CC(=O)O)C1c1cccc([N+](=O)[O-])c1` (centres unmarked) [CBK262921], the viability at 28.5 h, 10 µM was 97.4%.

With `Nc1ncnc2c1ncn2C1OC(C(=O)O)C(O)C1O` (centres unmarked) [CBK262922], the viability at 28.5 h, 10 µM worked out at 99.9%.

Turning to `c1ccc2sc(SCc3nc4c5c6c(sc5ncn4n3)CCCC6)nc2c1` [CBK262923], the viability at 28.5 h, 10 µM came to 92.5%.

For the compound `O=C(O)CCCN1C(=O)C(O)=C(C(=O)c2ccccc2)C1c1ccccc1` (centres unmarked) [CBK262924], the viability at 28.5 h, 10 µM turned out to be 93.3%.

As to `COc1cc(/C=N/NC(=O)CCc2c(C)n[nH]c2C)ccc1O` [CBK262925], the viability at 28.5 h, 10 µM came out at 90.1%.

With `Cn1c(=N)n(CC(=O)O)c2ccccc21` [CBK262926B], the viability at 28.5 h, 10 µM came to 90.4%.

As for `Cc1n[nH]c(C)c1CCC(=O)N/N=C/c1ccc(O)cc1` [CBK262927], the viability at 28.5 h, 10 µM was determined as 109%.

For `O=C(O)CC1OC(=O)c2cc3c(cc21)C(=O)OC3CC(=O)O` (centres unmarked) [CBK262928], the viability at 28.5 h, 10 µM was determined as 100%.

For `COc1ccc(C(O)Cn2c(=N)n(CCN3CCCCC3)c3ccccc32)cc1` (centres unmarked) [CBK262930C], the viability at 28.5 h, 10 µM is 98.8%.

Take `CCOc1ccc(C(N)CC(=O)O)cc1` (centres unmarked) [CBK262933C]: the viability at 28.5 h, 10 µM was found to be 82.4%.

Regarding `C/C(=N\NC(=O)CCc1c(C)n[nH]c1C)c1ccc(N)cc1` [CBK262935], the viability at 28.5 h, 10 µM is 97.7%.

For the compound `Nc1ccc(-c2ncccc2O)cc1` [CBK262937C], the viability at 28.5 h, 10 µM is 106%.

In the case of `N#Cc1c(NC(=O)COc2ccc(Cl)cc2)oc(-c2ccccc2)c1-c1ccccc1` [CBK262938], the viability at 28.5 h, 10 µM worked out at 91.5%.

On to `CCNC(=S)N(CCc1ccccc1)C1CC(=O)N(c2ccc(F)cc2)C1=O` (centres unmarked) [CBK262941], for which the viability at 28.5 h, 10 µM amounted to 87.6%.

With `Cn1c(=O)c2c(nc(SCC(=O)O)n2C)n(C)c1=O` [CBK262942], the viability at 28.5 h, 10 µM came to 88.3%.

`O=C(COc1ccc(Cl)cc1Br)NNC(=O)c1ccccc1O` [CBK262943]: the viability at 28.5 h, 10 µM was found to be 97.8%.

Take `O=C(Nc1ccc2oc(-c3cccnc3)nc2c1)c1ccc(-c2cccc([N+](=O)[O-])c2)o1` [CBK262945]: the viability at 28.5 h, 10 µM came out at 106%.

Turning to `Cc1ccc2nc(C)c(CCC(=O)O)c(O)c2c1` [CBK262946], the viability at 28.5 h, 10 µM is 91.8%.

Regarding `Cc1ccc(NC(=O)c2ccc(-c3cccc([N+](=O)[O-])c3)o2)cc1-c1nc2ncccc2o1` [CBK262947], the viability at 28.5 h, 10 µM was 89.7%.

As for `Cc1cc(C(=O)Nc2cccc(-c3nc4cc(Cl)ccc4o3)c2C)ccc1[N+](=O)[O-]` [CBK262949], the viability at 28.5 h, 10 µM turned out to be 91.8%.

Regarding `CC1(C)CC(NC(=O)c2cccc([N+](=O)[O-])c2)CC(C)(C)N1` [CBK262952C], the viability at 28.5 h, 10 µM stood at 99.8%.

Turning to `CCOc1cc(/C=C2\SC(=N)NC2=O)cc(Cl)c1O` [CBK262955], the viability at 28.5 h, 10 µM came out at 84.4%.

Consider `COc1ccc(/C=C(\C#N)c2nc3ccccc3n2Cc2c(C)ccc3ccccc23)cc1` [CBK262960], for which the viability at 28.5 h, 10 µM was 119%.

For the compound `NC(=O)c1ccc(NC(=O)COc2ccccc2Cl)cc1` [CBK262961], the viability at 28.5 h, 10 µM came to 109%.

For `CC(=O)Nc1ccc(S(=O)(=O)Oc2ccc(C3C4=C(CC(C)(C)CC4=O)N=C4c5ccccc5C(=O)C43)cc2)cc1` (centres unmarked) [CBK262964], the viability at 28.5 h, 10 µM amounted to 93.7%.

Regarding `N#C/C(=C\c1ccc(-c2ccc3c(c2)C(=O)NC3=O)o1)c1nc2ccccc2[nH]1` [CBK262965], the viability at 28.5 h, 10 µM amounted to 94.4%.

Turning to `CC1CC(N(C(=O)c2cccc(Br)c2)c2ccccc2)c2ccccc2N1` (centres unmarked) [CBK262966], the viability at 28.5 h, 10 µM turned out to be 96.7%.

Take `c1ccc2c(OCc3nc4ccccc4[nH]3)cccc2c1` [CBK262969]: the viability at 28.5 h, 10 µM was determined as 106%.

As to `COC(=O)Nc1ccc2c(c1)N(C(=O)CCN(C)C)c1ccccc1CC2` [CBK262972C], the viability at 28.5 h, 10 µM was 87.2%.

`O=c1c2c3c(sc2n2c(S)nnc2n1Cc1ccccc1)CN(Cc1ccccc1)CC3` [CBK262973]: the viability at 28.5 h, 10 µM came to 95%.

Turning to `CCn1c(C(O)c2ccc(OC)c(OC)c2)nc2ccccc21` (centres unmarked) [CBK262974], the viability at 28.5 h, 10 µM is 90.1%.

For the compound `O=C(Cc1ccccc1)NN1C(=O)/C(=C/c2ccccc2C(=O)O)SC1=S` [CBK262975], the viability at 28.5 h, 10 µM worked out at 104%.
